Measured values as given in publication PMC6556873, “Rapid Covalent-Probe Discovery by Electrophile-Fragment Screening” (Journal of the American Chemical Society, 2019).
Read-outs that look alike come from different tables or passages of the source.

Legend:
BSA = target: T1, BSA (Bos taurus, UniProt P02769); parameters: Intact protein LC/MS covalent labelling, fragments in pools of five, 200 uM each, 4 °C; details: 24 h, 4 °C, pool of five; 200 µM; covalent
T1 construct: gene ALB

NNMT (hNNMT) = target: T2, NNMT (hNNMT) (Homo sapiens, UniProt P40261); parameters: Intact protein LC/MS covalent labelling, fragments in pools of five, 200 uM each, 4 °C; details: 24 h, 4 °C, pool of five; 200 µM; covalent
T2 construct: wild type, N-terminal His6 tag kept (no cleavage described), E. coli, construct 31248 Da
T2 sequence (P40261 1-264): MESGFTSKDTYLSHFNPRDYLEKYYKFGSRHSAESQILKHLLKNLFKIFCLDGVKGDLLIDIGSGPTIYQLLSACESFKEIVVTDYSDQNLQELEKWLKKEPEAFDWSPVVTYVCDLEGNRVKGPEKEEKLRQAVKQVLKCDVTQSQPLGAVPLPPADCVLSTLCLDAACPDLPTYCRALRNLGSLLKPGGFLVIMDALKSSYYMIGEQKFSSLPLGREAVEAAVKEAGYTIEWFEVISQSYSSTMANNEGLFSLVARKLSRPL

PCAF = target: T3, PCAF (Homo sapiens, UniProt Q92831); parameters: Intact protein LC/MS covalent labelling, fragments in pools of five, 200 uM each, 4 °C; details: 24 h, 4 °C, pool of five; 200 µM; covalent
T3 construct: gene KAT2B

NUDT7 = target: T4, NUDT7 (Homo sapiens, UniProt P0C024); parameters: Intact protein LC/MS covalent labelling, fragments in pools of five, 200 uM each, 4 °C; details: 24 h, 4 °C, pool of five; 200 µM; covalent
T4 construct: residues 14-235, E. coli, pNIC28-Bsa4, N-terminal His6 tag removed by TEV, construct 26672 Da

OTUB2 (OTUB2A) = target: T5, OTUB2 (OTUB2A) (Homo sapiens, UniProt Q96DC9); parameters: Intact protein LC/MS covalent labelling, fragments in pools of five, 200 uM each, 4 °C; details: 24 h, 4 °C, pool of five; 200 µM; covalent
T5 construct: full length residues 1-234, E. coli BL21(DE3)-R3, His tag removed by TEV, construct 27312 Da
T5 sequence (Q96DC9 1-234): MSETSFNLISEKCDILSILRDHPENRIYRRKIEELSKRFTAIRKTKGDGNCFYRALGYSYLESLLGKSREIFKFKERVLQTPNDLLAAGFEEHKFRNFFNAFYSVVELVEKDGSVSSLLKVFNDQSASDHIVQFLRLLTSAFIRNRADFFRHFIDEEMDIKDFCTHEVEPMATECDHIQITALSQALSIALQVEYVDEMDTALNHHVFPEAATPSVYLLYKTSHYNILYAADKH

in vitro [1] = test: in vitro; parameters: species or system CCD841, HEK293; details: human, hb2 cells, read-out: HB-2 Cells Viability (%)
in vitro [2] = test: in vitro; parameters: species or system HB2, HEK293; details: human, ccd841 cells
in vitro [3] = test: in vitro; parameters: species or system HB2, CCD841; details: human, hek293 cells

T3 sequence (Q92831 whole entry, the tested form may be a part): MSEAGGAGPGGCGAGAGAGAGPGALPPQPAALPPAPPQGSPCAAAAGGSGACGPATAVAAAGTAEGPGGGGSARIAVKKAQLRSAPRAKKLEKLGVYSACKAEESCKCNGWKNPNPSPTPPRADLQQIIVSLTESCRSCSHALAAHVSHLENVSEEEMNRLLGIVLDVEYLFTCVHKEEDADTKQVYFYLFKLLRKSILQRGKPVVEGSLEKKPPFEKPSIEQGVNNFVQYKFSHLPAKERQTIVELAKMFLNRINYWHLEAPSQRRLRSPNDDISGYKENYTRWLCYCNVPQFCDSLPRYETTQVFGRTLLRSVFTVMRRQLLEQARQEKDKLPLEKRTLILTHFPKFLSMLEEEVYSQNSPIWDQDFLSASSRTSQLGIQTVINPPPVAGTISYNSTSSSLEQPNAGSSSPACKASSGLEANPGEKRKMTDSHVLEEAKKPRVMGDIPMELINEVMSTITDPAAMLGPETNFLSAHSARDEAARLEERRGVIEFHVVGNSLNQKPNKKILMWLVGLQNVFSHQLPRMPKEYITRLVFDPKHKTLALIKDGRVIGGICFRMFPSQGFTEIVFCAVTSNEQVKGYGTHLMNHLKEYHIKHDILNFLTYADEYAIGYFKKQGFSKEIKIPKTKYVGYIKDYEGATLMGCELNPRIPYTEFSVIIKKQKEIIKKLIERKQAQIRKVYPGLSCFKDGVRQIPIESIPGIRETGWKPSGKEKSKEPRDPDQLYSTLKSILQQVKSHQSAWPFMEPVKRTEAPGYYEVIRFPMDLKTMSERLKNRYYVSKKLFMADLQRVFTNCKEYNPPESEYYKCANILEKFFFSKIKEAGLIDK
T4 sequence (P0C024 14-235): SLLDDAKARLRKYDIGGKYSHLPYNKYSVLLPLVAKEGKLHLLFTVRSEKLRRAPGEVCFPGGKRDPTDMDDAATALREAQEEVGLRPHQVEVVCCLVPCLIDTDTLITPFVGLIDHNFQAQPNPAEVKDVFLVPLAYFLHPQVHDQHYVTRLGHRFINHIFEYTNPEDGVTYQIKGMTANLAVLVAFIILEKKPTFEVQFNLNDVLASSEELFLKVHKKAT
T1 sequence (P02769 whole entry, the tested form may be a part): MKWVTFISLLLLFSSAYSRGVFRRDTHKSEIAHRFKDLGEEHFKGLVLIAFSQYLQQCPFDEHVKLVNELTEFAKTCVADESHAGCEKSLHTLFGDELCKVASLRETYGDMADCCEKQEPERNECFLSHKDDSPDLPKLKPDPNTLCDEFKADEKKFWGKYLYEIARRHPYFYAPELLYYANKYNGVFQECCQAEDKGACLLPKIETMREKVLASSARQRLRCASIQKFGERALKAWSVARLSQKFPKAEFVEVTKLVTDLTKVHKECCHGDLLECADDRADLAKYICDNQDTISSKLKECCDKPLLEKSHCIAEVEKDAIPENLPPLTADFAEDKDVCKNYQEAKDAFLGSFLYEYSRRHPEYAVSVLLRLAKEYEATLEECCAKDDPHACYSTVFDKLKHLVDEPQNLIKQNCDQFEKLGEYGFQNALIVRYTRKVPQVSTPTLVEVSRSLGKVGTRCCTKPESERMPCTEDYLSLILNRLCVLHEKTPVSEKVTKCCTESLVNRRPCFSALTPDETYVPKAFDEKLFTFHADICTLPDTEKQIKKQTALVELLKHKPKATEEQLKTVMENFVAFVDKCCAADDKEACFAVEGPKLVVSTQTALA

Row | Structure (SMILES) | BSA (BSA) | NNMT (NNMT (hNNMT)) | PCAF (PCAF) | NUDT7 (NUDT7) | OTUB2 (OTUB2 (OTUB2A)) | viability at 48 h, 10 µM (in vitro [1]) | viability at 48 h, 10 µM (in vitro [2]) | viability at 48 h, 10 µM (in vitro [3])
1 | O=C(CCl)Nc1nc(C2CC2)no1 [PCM-0103076] | 0 | 0.16 | 0 | 0 | 0.11 | 104% | 102% | 97.9%
2 | Cl.O=C(CCl)N1CCN(Cc2cccc(Cl)c2)CC1 [PCM-0102269] | 0 | 0 | 0 | 0 | 0.19 | 6.3% | 24.2% | 7.9%
3 | O=C(CCl)NC(=O)c1ccc[nH]1 [PCM-0102795] | 0 | 0 | 0 | 0 | 0 | 96.2% | 100% | 149%
4 | N#Cc1oc2ccccc2c1NC(=O)CCl [PCM-0102252] | 0 | 0.34 | 0 | 0.37 | 0.86 | 3.8% | 34.7% | 3.4%
5 | O=C(CCl)Nc1ccccc1N1CCCC1 [PCM-0102135] | 0 | 0 | 0 | 0 | 0 | 98.5% | 95% | 91.3%
6 | O=C(CCl)NC(=O)c1cccc([N+](=O)[O-])c1 [PCM-0102460] | 0 | 0.12 | 0 | 0 | 0 | 99.8% | 95.9% | 117%
7 | Cl.O=C(CCl)NC1CCN(C2CC2)CC1 [PCM-0103055] | 0 | 0.23 | 0 | 0 | 0 | 98.2% | 83% | 92.7%
8 | C=CC(=O)N1CC(=O)NC2CCCCC21 (centres unmarked) [PCM-0102717] | 0 | 0 | 0 | 0 | 0 | 100% | 105% | 112%
9 | C=CC(=O)N1CCNC(=O)C1c1c(F)cccc1Cl (centres unmarked) [PCM-0102490] | 0 | 0 | 0 | 0 | 0 | 98.5% | 95.5% | 104%
10 | CC(NC(=O)CCl)c1ccco1 (centres unmarked) [PCM-0102798] | 0 | 0 | 0 | 0.14 | 0.19 | 95.8% | 97.1% | 88.4%
11 | C=CC(=O)NCC1=CS(=O)(=O)c2ccccc21 [PCM-0102563] | 0 | 0.07 | 0 | 0 | 0.04 | 102% | 110% | 82.9%
12 | O=C(CCl)NC(=O)NC1CCS(=O)(=O)C1 (centres unmarked) [PCM-0102100] | 0 | 0 | 0 | 0 | 0.09 | 101% | 106% | 99.5%
13 | Cc1ccc(-c2cc(NC(=O)CCl)on2)cc1 [PCM-0102382] | 0 | 0.64 | 0 | 0.81 | 0.45 | 42.7% | 54.6% | 52.2%
